Data taken from patent publication US10294202B2, “Pyrrolidinones as herbicides” (FMC Corporation, priority 2013, dated 2019).

Assays:
wheat = experiment: Test A pre-/postemergence herbicide test; assay type: in vivo, Triticum aestivum; settings: Postemergence
Procedure, shortened: (§1)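 Planted in loam–sand blend; treated the same day preemergence by directed soil spray, while separately grown plants at one- to two-leaf stage got postemergence spray. Compared visually with untreated controls after approximately 10 days; 100 means complete control.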

foxtail, giant = experiment: Test C pre-/postemergence herbicide test; assay type: in vivo, Setaria faberii
Procedure, shortened: (§2)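 Test compounds, formulated in a surfactant-containing non-phytotoxic solvent blend, are applied to seeded loam/sand soil (preemergence) and to young plants at the 1- to 4-leaf stage in peat-based medium (postemergence). Plants stay 13 to 15 days under greenhouse conditions, then are scored visually relative to controls, 0 = no effect, 100 = complete control.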

pigweed = experiment: Test C pre-/postemergence herbicide test; assay type: in vivo, Amaranthus retroflexus
Procedure, shortened: as §2

morningglory = experiment: Test C pre-/postemergence herbicide test; assay type: in vivo, Ipomoea coccinea
Procedure, shortened: as §2

johnsongrass = experiment: Test C pre-/postemergence herbicide test; assay type: in vivo, Sorghum halepense
Procedure, shortened: as §2

galium = experiment: Test C pre-/postemergence herbicide test; assay type: in vivo, Galium aparine
Procedure, shortened: as §2

barnyardgrass = experiment: Test C pre-/postemergence herbicide test; assay type: in vivo, Echinochloa crus-galli
Procedure, shortened: as §2

wheat (winter wheat) = experiment: Test C pre-/postemergence herbicide test; assay type: in vivo, Triticum aestivum
Procedure, shortened: as §2

giant foxtail = experiment: Test A pre-/postemergence herbicide test; assay type: in vivo, Setaria faberii
Procedure, shortened: as §1

lambsquarters = experiment: Test C pre-/postemergence herbicide test; assay type: in vivo, Chenopodium album
Procedure, shortened: as §2

[1] = 125 g ai/ha, visual rating on 0 to 100 scale (0 no effect, 100 complete control), approx. 10 days
[2] = 500 g ai/ha, 0 to 100 scale (0 no effect, 100 complete control)
[3] = Preemergence, 31 g ai/ha, scale 0 to 100, 0 is no effect and 100 is complete control
[4] = Preemergence, 62 g ai/ha, scale 0 to 100 (0 no effect, 100 complete control)
[5] = Preemergence, 125 g ai/ha, scale 0 to 100
[6] = Preemergence, 125 g ai/ha, scale 0 to 100 (0 no effect, 100 complete control)
[7] = Postemergence, 125 g ai/ha, visual rating on 0 to 100 scale (0 no effect, 100 complete control), approx. 10 days
[8] = Postemergence, 500 g ai/ha, 0 to 100 scale (0 no effect, 100 complete control)
[9] = Preemergence, 125 g ai/ha, 0 to 100 scale where 0 is no effect and 100 is complete control
[10] = Preemergence, 500 g ai/ha, visual rating on 0 to 100 scale (0 no effect, 100 complete control)
[11] = Postemergence, 31 g ai/ha, scale 0 to 100 (0 no effect, 100 complete control)
[12] = Postemergence, 62 g ai/ha, scale 0 (no effect) to 100 (complete control)
[13] = Postemergence, 125 g ai/ha, scale 0 to 100 (0 no effect, 100 complete control)
[14] = Postemergence, 250 g ai/ha, scale 0 to 100 (0 no effect, 100 complete control)
[15] = Postemergence, 16 g ai/ha, scale 0 to 100 (0 no effect, 100 complete control)
[16] = Preemergence, 16 g ai/ha, scale 0 to 100

O=C1NCC(c2cccc(Br)c2)C1C(=O)Nc1ccccc1F (stereo not drawn) [Compound 307]
Plant response rating, Wheat (wheat; [1]): 0
Plant response rating, Wheat (wheat; [2]): 30
Foxtail, Giant plant response rating (foxtail, giant; [3]): 65
Foxtail, Giant plant response rating (foxtail, giant; [4]): 85
Plant response rating, Foxtail, Giant (foxtail, giant; [5]): 85
Plant response rating (scale of 0 to 100), Foxtail, Giant (foxtail, giant; Preemergence, 250 g ai/ha): 95
Pigweed plant response rating (pigweed; [3]): 0
Pigweed plant response rating (pigweed; [4]): 0
Plant response rating, Pigweed (pigweed; [5]): 40
Plant response rating (scale of 0 to 100), Pigweed (pigweed; Preemergence, 250 g ai/ha): 35
Morningglory plant response rating (morningglory; [3]): 0
Morningglory plant response rating (morningglory; [4]): 0
Plant response rating, Morningglory (morningglory; [5]): 0
Plant response rating (scale of 0 to 100), Morningglory (morningglory; Preemergence, 250 g ai/ha): 0
Johnsongrass plant response rating (johnsongrass; [3]): 0
Johnsongrass plant response rating (johnsongrass; [4]): 0
Plant response rating, Johnsongrass (johnsongrass; [5]): 0
Plant response rating (scale of 0 to 100), Johnsongrass (johnsongrass; Preemergence, 250 g ai/ha): 45
Galium plant response rating (galium; [3]): 0
Galium plant response rating (galium; [4]): 0
Plant response rating, Galium (galium; [5]): 100
Plant response rating (scale of 0 to 100), Galium (galium; Preemergence, 250 g ai/ha): 85
Barnyardgrass plant response rating (barnyardgrass; [3]): 40
Barnyardgrass plant response rating (barnyardgrass; [4]): 70
Plant response rating, Barnyardgrass (barnyardgrass; [6]): 85
Plant response rating (scale of 0 to 100; 0 is no effect, 100 is complete control), Barnyardgrass (barnyardgrass; Preemergence, 250 g ai/ha): 95
Wheat plant response rating (wheat (winter wheat); [4]): 0
Plant response rating, Wheat (wheat (winter wheat); [5]): 5
Plant response rating (scale of 0 to 100), Wheat (wheat (winter wheat); Preemergence, 250 g ai/ha): 15
Plant response rating, Foxtail, Giant (giant foxtail; [7]): 70
Plant response rating, Foxtail, Giant (giant foxtail; [8]): 80
Plant response rating, Foxtail, Giant (giant foxtail; [9]): 80
Foxtail, Giant plant response rating (giant foxtail; [10]): 90
Lambsquarters plant response rating (lambsquarters; [3]): 0
Lambsquarters plant response rating (lambsquarters; [4]): 0
Plant response rating, Lambsquarters (lambsquarters; [5]): 10
Plant response rating (scale of 0 to 100), Lambsquarters (lambsquarters; Preemergence, 250 g ai/ha): 85

O=C1NCC(c2cccc(Cl)c2)C1C(=O)Nc1cccc(F)c1F (racemic) [Compound 275]
Plant response rating, Wheat (wheat; [1]): 40
Plant response rating, Wheat (wheat; [2]): 70
Plant response rating, Foxtail, Giant (foxtail, giant; [11]): 10
Plant response rating, Foxtail, Giant (foxtail, giant; [12]): 75
Plant response rating, Foxtail, Giant (foxtail, giant; [13]): 35
Plant response rating, Foxtail, Giant (foxtail, giant; [14]): 90
Foxtail, Giant plant response rating (foxtail, giant; [3]): 90
Foxtail, Giant plant response rating (foxtail, giant; [4]): 95
Plant response rating, Foxtail, Giant (foxtail, giant; [6]): 98
Plant response rating (scale of 0 to 100), Foxtail, Giant (foxtail, giant; Preemergence, 250 g ai/ha): 100
Plant response rating, Pigweed (pigweed; [11]): 5
Plant response rating, Pigweed (pigweed; [12]): 5
Plant response rating, Pigweed (pigweed; [13]): 30
Plant response rating, Pigweed (pigweed; [14]): 35
Pigweed plant response rating (pigweed; [3]): 0
Pigweed plant response rating (pigweed; [4]): 0
Plant response rating, Pigweed (pigweed; [6]): 10
Plant response rating (scale of 0 to 100), Pigweed (pigweed; Preemergence, 250 g ai/ha): 40
Plant response rating, Morningglory (morningglory; [11]): 10
Plant response rating, Morningglory (morningglory; [12]): 10
Plant response rating, Morningglory (morningglory; [13]): 20
Plant response rating, Morningglory (morningglory; [14]): 20
Morningglory plant response rating (morningglory; [3]): 0
Morningglory plant response rating (morningglory; [4]): 0
Plant response rating, Morningglory (morningglory; [6]): 0
Plant response rating (scale of 0 to 100), Morningglory (morningglory; Preemergence, 250 g ai/ha): 50
Plant response rating, Johnsongrass (johnsongrass; [11]): 0
Plant response rating, Johnsongrass (johnsongrass; [12]): 0
Plant response rating, Johnsongrass (johnsongrass; [13]): 0
Plant response rating, Johnsongrass (johnsongrass; [14]): 25
Johnsongrass plant response rating (johnsongrass; [3]): 10
Johnsongrass plant response rating (johnsongrass; [4]): 50
Plant response rating, Johnsongrass (johnsongrass; [6]): 75
Plant response rating (scale of 0 to 100), Johnsongrass (johnsongrass; Preemergence, 250 g ai/ha): 85
Plant response rating, Galium (galium; [11]): 50
Plant response rating, Galium (galium; [12]): 55
Plant response rating, Galium (galium; [13]): 75
Plant response rating, Galium (galium; [14]): 80
Galium plant response rating (galium; [3]): 0
Galium plant response rating (galium; [4]): 90
Plant response rating, Galium (galium; [6]): 30
Plant response rating (scale of 0 to 100), Galium (galium; Preemergence, 250 g ai/ha): 85
Plant response rating, Barnyardgrass (barnyardgrass; [11]): 30
Plant response rating, Barnyardgrass (barnyardgrass; [12]): 60
Plant response rating, Barnyardgrass (barnyardgrass; [13]): 75
Plant response rating, Barnyardgrass (barnyardgrass; [14]): 85
Barnyardgrass plant response rating (barnyardgrass; [3]): 80
Barnyardgrass plant response rating (barnyardgrass; [4]): 95
Plant response rating, Barnyardgrass (barnyardgrass; [6]): 95
Plant response rating (scale of 0 to 100; 0 is no effect, 100 is complete control), Barnyardgrass (barnyardgrass; Preemergence, 250 g ai/ha): 98
Plant response rating, Wheat (wheat (winter wheat); [11]): 0
Plant response rating, Wheat (wheat (winter wheat); [12]): 0
Plant response rating, Wheat (wheat (winter wheat); [13]): 0
Plant response rating, Wheat (wheat (winter wheat); [14]): 0
Wheat plant response rating (wheat (winter wheat); [3]): 5
Wheat plant response rating (wheat (winter wheat); [4]): 45
Plant response rating (scale of 0 to 100), Wheat (wheat (winter wheat); Preemergence, 250 g ai/ha): 90
Plant response rating, Foxtail, Giant (giant foxtail; Postemergence, 125 g ai/ha, 0 to 100 scale, 0 is no effect, 100 is complete control): 90
Plant response rating, Foxtail, Giant (giant foxtail; [8]): 90
Plant response rating, Foxtail, Giant (giant foxtail; [9]): 90
Plant response rating, Foxtail, Giant (giant foxtail; preemergence, 500 g ai/ha, 0 to 100 scale, 0 is no effect and 100 is complete control): 90
Plant response rating, Lambsquarters (lambsquarters; [11]): 10
Plant response rating, Lambsquarters (lambsquarters; [12]): 60
Plant response rating, Lambsquarters (lambsquarters; [13]): 75
Plant response rating, Lambsquarters (lambsquarters; [14]): 75
Lambsquarters plant response rating (lambsquarters; [3]): 70
Lambsquarters plant response rating (lambsquarters; [4]): 75
Plant response rating, Lambsquarters (lambsquarters; [6]): 85
Plant response rating (scale of 0 to 100), Lambsquarters (lambsquarters; Preemergence, 250 g ai/ha): 98

CN1CC(c2ccc(C(F)(F)F)cc2)C(C(=O)Nc2ccccc2F)C1=O (stereo not drawn) [Compound 304]
Plant response rating, Wheat (wheat; [1]): 40
Plant response rating, Wheat (wheat; [2]): 60
Plant response rating, Foxtail, Giant (foxtail, giant; [15]): 0
Plant response rating, Foxtail, Giant (foxtail, giant; [11]): 0
Plant response rating, Foxtail, Giant (foxtail, giant; [12]): 10
Plant response rating, Foxtail, Giant (foxtail, giant; [13]): 45
Foxtail, Giant plant response rating (foxtail, giant; [3]): 90
Foxtail, Giant plant response rating (foxtail, giant; [4]): 95
Plant response rating, Foxtail, Giant (foxtail, giant; [6]): 95
Plant response rating, Foxtail, Giant (foxtail, giant; [16]): 90
Plant response rating, Pigweed (pigweed; [15]): 25
Plant response rating, Pigweed (pigweed; [11]): 35
Plant response rating, Pigweed (pigweed; [12]): 55
Plant response rating, Pigweed (pigweed; [13]): 55
Pigweed plant response rating (pigweed; [3]): 55
Pigweed plant response rating (pigweed; [4]): 75
Plant response rating, Pigweed (pigweed; [6]): 85
Plant response rating, Pigweed (pigweed; [16]): 40
Plant response rating, Morningglory (morningglory; [15]): 20
Plant response rating, Morningglory (morningglory; [11]): 50
Plant response rating, Morningglory (morningglory; [12]): 20
Plant response rating, Morningglory (morningglory; [13]): 45
Morningglory plant response rating (morningglory; [3]): 5
Morningglory plant response rating (morningglory; [4]): 50
Plant response rating, Morningglory (morningglory; [6]): 40
Plant response rating, Morningglory (morningglory; [16]): 0
Plant response rating, Johnsongrass (johnsongrass; [15]): 0
Plant response rating, Johnsongrass (johnsongrass; [11]): 0
Plant response rating, Johnsongrass (johnsongrass; [12]): 0
Plant response rating, Johnsongrass (johnsongrass; [13]): 0
Johnsongrass plant response rating (johnsongrass; [3]): 0
Johnsongrass plant response rating (johnsongrass; [4]): 35
Plant response rating, Johnsongrass (johnsongrass; [6]): 35
Plant response rating, Johnsongrass (johnsongrass; [16]): 0
Galium plant response rating (galium; [3]): 85
Galium plant response rating (galium; [4]): 95
Plant response rating, Galium (galium; [6]): 85
Plant response rating, Galium (galium; [16]): 100
Plant response rating, Barnyardgrass (barnyardgrass; [15]): 0
Plant response rating, Barnyardgrass (barnyardgrass; [11]): 0
Plant response rating, Barnyardgrass (barnyardgrass; [12]): 0
Plant response rating, Barnyardgrass (barnyardgrass; [13]): 40
Barnyardgrass plant response rating (barnyardgrass; [3]): 85
Barnyardgrass plant response rating (barnyardgrass; [4]): 90
Plant response rating, Barnyardgrass (barnyardgrass; [6]): 95
Plant response rating, Barnyardgrass (barnyardgrass; [16]): 85
Plant response rating, Wheat (wheat (winter wheat); [15]): 0
Plant response rating, Wheat (wheat (winter wheat); [11]): 0
Plant response rating, Wheat (wheat (winter wheat); [12]): 0
Plant response rating, Wheat (wheat (winter wheat); [13]): 0
Wheat plant response rating (wheat (winter wheat); [3]): 40
Wheat plant response rating (wheat (winter wheat); [4]): 50
Plant response rating, Wheat (wheat (winter wheat); [16]): 5
Plant response rating, Foxtail, Giant (giant foxtail; [7]): 80
Plant response rating, Foxtail, Giant (giant foxtail; [8]): 80
Plant response rating, Foxtail, Giant (giant foxtail; [9]): 90
Foxtail, Giant plant response rating (giant foxtail; [10]): 90
Plant response rating, Lambsquarters (lambsquarters; [15]): 65
Plant response rating, Lambsquarters (lambsquarters; [11]): 35
Plant response rating, Lambsquarters (lambsquarters; [12]): 75
Plant response rating, Lambsquarters (lambsquarters; [13]): 70
Lambsquarters plant response rating (lambsquarters; [3]): 65
Lambsquarters plant response rating (lambsquarters; [4]): 70
Plant response rating, Lambsquarters (lambsquarters; [6]): 80
Plant response rating, Lambsquarters (lambsquarters; [16]): 30
